Among the data in PMC7144234, “Antiproliferative chromone derivatives induce K562 cell death through endogenous and exogenous pathways” (Journal of Enzyme Inhibition and Medicinal Chemistry, 2020) are IC50 values, retold here.

Bounds are passed on as bounds.

The test system of one assay is MCF-7. The assay can be described thus: MTT antiproliferative assay, MCF-7. Particulars: breast carcinoma MCF-7. The format is cell-based, human. The procedure: (§1) The colorimetric MTT (3-(4,5-dimethylthiazol-2-yl)-2,5-diphenyltetrazolium bromide) assay was used to measure the cell viability of all of the above cell lines following treatment with target hybrids. Exponentially growing cells were added into 96-well plates at a concentration of 2000–4000 cells per well. Following attachment the cells were treated with varying concentrations (64, 16, 4, 1, 0.25, 0.0625 and 0.015625 µM) of target compounds in media and were kept for incubation for 72 h. MTT (20 µL, 5 mg/mL in PBS) was added to each well and the cells were incubated for another 3 h at 37 °C. Then the medium was removed, followed by the addition of 150 µL DMSO for each well. After that, the absorbance (OD) data of each well at 570 nm wavelength were measured by a Microplate Reader (BIO-RAD), and half inhibition rates (IC50) were calculated[59]^,[60].
(Formazan colour is commonly taken as a measure of viable cells.)

Another assay deals with HepG2. The assay can be described thus: MTT antiproliferative assay, HepG2. The format is cell-based, human. As to conditions: 72 h, hepatoma HepG2. The procedure:
as §1

In a further assay the test system is L-02. Kind of assay: MTT assay, normal hepatic L-02 cell line. As to conditions: human normal hepatic L-02 cell line. The format is cell-based. On the procedure:
as §1

A further assay deals with K562. Kind of assay: MTT antiproliferative assay, K562. As to conditions: 72 h, chronic myeloid leukaemia K562. The format is cell-based, human. On the procedure: as §1
Another assay has as its system B16. Kind of assay: MTT antiproliferative assay, B16. The format is cell-based. As to conditions: 72 h, melanoma B16. On the procedure: as §1
The next assay deals with HCT-116. The assay can be described thus: MTT antiproliferative assay, HCT-116. The format is cell-based, human. As to conditions: 72 h, colorectal carcinoma HCT-116. The procedure:
as §1

The next assay concerns PBMC. Kind of assay: MTT assay, peripheral blood mononuclear cells. The format is cell-based, human. Particulars: 72 h. On the procedure:
as §1

As for “2-((1-(6-Methyl-4-oxo-4H-chromene-3-carboxamido)propan-2-yl)oxy)-3-(phenylsulfonyl)-1,2,5-oxadiazole 2-oxide [14a]”, the concentration for half-maximal inhibition (IC50) in the assay with MCF-7 (72 h) is > 50 µM; in the assay with HepG2, 19.9 ± 1.31 µM; in the assay with L-02 (72 h), > 50 µM; in the assay with K562, 13.6 ± 0.85 µM; in the assay on B16 it was 27.9 ± 1.23 µM; in the assay on HCT-116, 29.6 ± 1.48 µM. For the same compound, the IC50 in the assay with PBMC is > 50 µM.

Take “4-(2-(4-(3-Carboxy-6-methyl-4-oxo-4H-chromen-2-yl)piperazin-1-yl)ethoxy)-3-(phenlsulfonyl)-1,2,5-oxadiazole 2-oxide [14d]”: the IC50 was 13.8 ± 0.49 µM in the assay with MCF-7 (72 h); 5.38 ± 0.19 µM with HepG2; 28.9 ± 1.43 µM in the assay on L-02 (72 h); 2.75 ± 0.17 µM in the assay with K562; 11.7 ± 0.52 µM in the assay on B16; 7.87 ± 0.32 µM in the assay with HCT-116. For the same compound, in the assay with PBMC, the IC50 is > 50 µM.

For the compound “4-(2-(6-Methoxy-4-oxo-4H-chromene-3-carboxamido)ethoxy)-3-(phenylsulfonyl)-1,2,5-oxadiazole 2-oxide [13a]”, the IC50 in the assay on MCF-7 (72 h) was 22.1 ± 1.38 µM; in the assay with HepG2, 10.6 ± 0.72 µM; in the assay with L-02 (72 h) it was > 50 µM; with K562, 5.89 ± 0.26 µM; in the assay on B16 it was 16.8 ± 0.74 µM; with HCT-116 it was 13.2 ± 0.53 µM. In addition, the IC50 in the assay with PBMC is > 50 µM.

With “4-(2-((3-Carboxy-6-methoxy-4-oxo-4H-chromen-2-yl)amino)ethoxy)-3-(phenylsulfonyl)-1,2,5-oxadiazole 2-oxide [13b]”, the IC50 was 24.8 ± 1.28 µM in the assay on MCF-7 (72 h); 22.6 ± 1.39 µM with HepG2; > 50 µM in the assay on L-02 (72 h); 13.6 ± 0.76 µM in the assay on K562; 26.8 ± 1.22 µM with B16; 26.9 ± 1.4 µM in the assay on HCT-116. Also, the IC50 in the assay with PBMC is > 50 µM.

As for “4-(2-((3-Carboxy-6-methyl-4-oxo-4H-chromen-2-yl)amino)ethoxy)-3-(phenylsulfonyl)-1,2,5-oxadiazole 2-oxide [12b]”, the IC50 in the assay with MCF-7 (72 h) is 26.6 ± 1.6 µM; with HepG2, 21.3 ± 1.58 µM; in the assay with L-02 (72 h), > 50 µM; with K562, 12.5 ± 1.03 µM; with B16, 31.4 ± 1.34 µM; in the assay on HCT-116, 26.9 ± 1.61 µM. For the same compound, in the assay on PBMC, the IC50 is > 50 µM.

With “4-(3-(6-Methyl-4-oxo-4H-chromene-3-carboxamido)propoxy)-3-(phenylsulfonyl)-1,2,5-oxadiazole 2-oxide [12c]”, the half-maximal inhibitory concentration (IC50) in the assay on MCF-7 (72 h) was > 50 µM; with HepG2, 21.5 ± 1.23 µM; in the assay on L-02 (72 h) it was > 50 µM; with K562, 12.5 ± 0.77 µM; in the assay with B16 it was 26.9 ± 1.08 µM; in the assay on HCT-116, 25.4 ± 1.76 µM. Further, the IC50 in the assay with PBMC was > 50 µM.

“4-(3-((3-Carboxy-6-methoxy-4-oxo-4H-chromen-2-yl)amino)propoxy)-3-(phenylsulfonyl)-1,2,5-oxadiazole 2-oxide [13d]”: the IC50 in the assay on MCF-7 (72 h), in the assay with HepG2, in the assay on L-02 (72 h), in the assay on K562, with B16 and in the assay with HCT-116 was > 50 µM in each case. The IC50 in the assay on PBMC was > 50 µM.

For “4-(3-((3-Carboxy-6-methyl-4-oxo-4H-chromen-2-yl)amino)propoxy)-3-(phenylsulfonyl)-1,2,5-oxadiazole 2-oxide [12d]”, the IC50 worked out at 15.9 ± 0.66 µM in the assay with MCF-7 (72 h); 7.91 ± 0.4 µM in the assay on HepG2; 33.6 ± 2.95 µM with L-02 (72 h); 4.94 ± 0.25 µM in the assay with K562; 9.96 ± 0.67 µM with B16; 8.64 ± 0.58 µM with HCT-116. Moreover, the IC50 with PBMC was > 50 µM.

As to “4-((1-((3-Carboxy-6-methoxy-4-oxo-4H-chromen-2-yl)amino)propan-2-yl)oxy)-3-(phenylsulfonyl)-1,2,5-oxadiazole 2-oxide [15b]”, the IC50 with MCF-7 (72 h), with HepG2, in the assay with L-02 (72 h), with K562, with B16 and in the assay on HCT-116 was > 50 µM in each case. Moreover, the IC50 in the assay with PBMC is > 50 µM.

On to “4-((1-((3-Carboxy-6-methyl-4-oxo-4H-chromen-2-yl)amino)propan-2-yl)oxy)-3-(phenylsulfonyl)-1,2,5-oxadiazole 2-oxide [14b]”, for which the IC50 with MCF-7 (72 h), in the assay on HepG2, with L-02 (72 h), with K562, with B16 and in the assay on HCT-116 was > 50 µM in each case. For the same compound, in the assay on PBMC, the IC50 is > 50 µM.

As for `O=c1[nH]cc(F)c(=O)[nH]1` [5-Fu, fluorouracil, reference compound], the IC50 is 26.7 ± 1.92 µM in the assay with MCF-7 (Homo sapiens, MCF7, 72 h); 32.6 ± 1.98 µM with HepG2 (Homo sapiens); > 50 µM with L-02 (L02, 72 h); 3.94 ± 0.17 µM with K562 (Homo sapiens); 12.6 ± 1.06 µM in the assay with B16; 6.86 ± 0.37 µM with HCT-116 (Homo sapiens). For the same compound, in the assay with PBMC (Homo sapiens, PBMC), the IC50 is > 50 µM.

On to `NCCOc1no[n+]([O-])c1S(=O)(=O)c1ccccc1` [5a, 4-(2-aminoethoxy)-3-(phenylsulfonyl)-1,2,5-oxadiazole-2-oxide], for which the IC50 is > 50 µM in the assay on MCF-7 (Homo sapiens, MCF7, 72 h); 21.8 ± 1.35 µM with HepG2 (Homo sapiens); > 50 µM in the assay on L-02 (L02, 72 h); 18.9 ± 0.73 µM in the assay on K562 (Homo sapiens); 27.9 ± 1.23 µM in the assay on B16; 29.9 ± 1.47 µM in the assay on HCT-116 (Homo sapiens). Moreover, the IC50 in the assay on PBMC (Homo sapiens, PBMC) was > 50 µM.

On to `NCCCOc1no[n+]([O-])c1S(=O)(=O)c1ccccc1` [5b, 4-(3-aminopropoxy)-3-(phenylsulfonyl)-1,2,5-oxadiazole-2-oxide], for which the IC50 with MCF-7 (Homo sapiens, MCF7, 72 h) was > 50 µM; with HepG2 (Homo sapiens), 17.8 ± 1.43 µM; in the assay on L-02 (L02, 72 h), > 50 µM; in the assay with K562 (Homo sapiens) it was 20.3 ± 1.88 µM; in the assay on B16 it was 22.9 ± 1.46 µM; with HCT-116 (Homo sapiens), 18.9 ± 1.67 µM. The IC50 with PBMC (Homo sapiens, PBMC) is > 50 µM.

Regarding `CC(CN)Oc1no[n+]([O-])c1S(=O)(=O)c1ccccc1` (stereo not shown) [5c, 4-((1-aminopropan-2-yl)oxy)-3-(phenylsulfonyl)-1,2,5-oxadiazole-2-oxide], the 50% inhibitory concentration (IC50) is > 50 µM with MCF-7 (Homo sapiens, MCF7, 72 h); > 50 µM in the assay with HepG2 (Homo sapiens); > 50 µM in the assay on L-02 (L02, 72 h); > 50 µM in the assay on K562 (Homo sapiens); > 50 µM in the assay on B16; > 50 µM in the assay with HCT-116 (Homo sapiens). For the same compound, the IC50 with PBMC (Homo sapiens, PBMC) was > 50 µM.

As for `O=S(=O)(c1ccccc1)c1c(OCCN2CCNCC2)no[n+]1[O-]` [5d, 3-(phenyl-sulfonyl)-4-(2-(piperazin-1-yl)ethoxy)-1,2,5-oxadiazole-2-oxide], the IC50 is > 50 µM in the assay with MCF-7 (Homo sapiens, MCF7, 72 h); > 50 µM in the assay on HepG2 (Homo sapiens); > 50 µM in the assay on L-02 (L02, 72 h); > 50 µM in the assay on K562 (Homo sapiens); > 50 µM with B16; > 50 µM in the assay with HCT-116 (Homo sapiens). The half-maximal inhibitory concentration (IC50) in the assay on PBMC (Homo sapiens, PBMC) was > 50 µM.

Take `Cc1ccc2occ(C(=O)NCCOc3no[n+]([O-])c3S(=O)(=O)c3ccccc3)c(=O)c2c1` [12a, (2-(6-Methyl-4-oxo-4H-chromene-3-carboxamido)ethoxy)-3-(phenylsulfonyl)-1,2,5-oxadiazole 2-oxide]: the IC50 in the assay with MCF-7 (Homo sapiens, MCF7, 72 h) is > 50 µM; in the assay on HepG2 (Homo sapiens), > 50 µM; in the assay with L-02 (L02, 72 h), > 50 µM; with K562 (Homo sapiens), > 50 µM; with B16 it was > 50 µM; in the assay with HCT-116 (Homo sapiens) it was > 50 µM. Besides, the IC50 in the assay with PBMC (Homo sapiens, PBMC) was > 50 µM.

In the case of `COc1ccc2occ(C(=O)NCCCOc3no[n+]([O-])c3S(=O)(=O)c3ccccc3)c(=O)c2c1` [13c, 4-(3-(6-Methoxy-4-oxo-4H-chromene-3-carboxamido)propoxy)-3-(phenylsulfonyl)-1,2,5-oxadiazole 2-oxide], the IC50 is > 50 µM with MCF-7 (Homo sapiens, MCF7, 72 h); > 50 µM with HepG2 (Homo sapiens); > 50 µM with L-02 (L02, 72 h); > 50 µM in the assay with K562 (Homo sapiens); > 50 µM in the assay on B16; > 50 µM in the assay on HCT-116 (Homo sapiens). Moreover, in the assay with PBMC (Homo sapiens, PBMC), the half-maximal inhibitory concentration (IC50) is > 50 µM.

With `Cc1ccc2occ(C(=O)N3CCN(CCOc4no[n+]([O-])c4S(=O)(=O)c4ccccc4)CC3)c(=O)c2c1` [14c, 4-(2-(4-(6-Methyl-4-oxo-4H-chromene-3-carbonyl)piperazin-1-yl)ethoxy)-3-(phenylsulfonyl)-1,2,5-oxadiazole 2-oxide], the half-inhibitory concentration (IC50) in the assay with MCF-7 (Homo sapiens, MCF7, 72 h) is 12.8 ± 1.46 µM; in the assay on HepG2 (Homo sapiens), 5.67 ± 0.42 µM; in the assay on L-02 (L02, 72 h), 41.3 ± 2.58 µM; in the assay with K562 (Homo sapiens), 2.98 ± 0.14 µM; with B16, 10.6 ± 0.53 µM; in the assay on HCT-116 (Homo sapiens) it was 7.93 ± 0.44 µM. For the same compound, in the assay with PBMC (Homo sapiens, PBMC), the IC50 is > 50 µM.

`COc1ccc2occ(C(=O)N3CCN(CCOc4no[n+]([O-])c4S(=O)(=O)c4ccccc4)CC3)c(=O)c2c1` [15c, 4-(2-(4-(6-Methoxy-4-oxo-4H-chromene-3-carbonyl)piperazin-1-yl)ethoxy)-3-(phenylsulfonyl)-1,2,5-oxadiazole 2-oxide]: the IC50 in the assay on MCF-7 (Homo sapiens, MCF7, 72 h) was 37.6 ± 2.24 µM; with HepG2 (Homo sapiens), 25.6 ± 1.57 µM; in the assay on L-02 (L02, 72 h), > 50 µM; with K562 (Homo sapiens) it was 8.93 ± 0.36 µM; with B16, 23.5 ± 1.61 µM; in the assay on HCT-116 (Homo sapiens), 22.4 ± 1.72 µM. Moreover, the IC50 with PBMC (Homo sapiens, PBMC) was > 50 µM.

Usually IC50 stands for the concentration at which inhibition is half-maximal. Read a low IC50 as greater potency.
